In the supplement of paper PMC10307832:

Legend:
Assay in all cases: relative viability (nuclei count vs DMSO), 5 days (fraction); higher = more cells survive
TGX 221 + Crizotinib = compound: CC1=CN2C(=O)C=C(N=C2C(=C1)C(C)NC3=CC=CC=C3)N4CCOCC4 [TGX 221] + C[C@@H](Oc1cc(-c2cnn(C3CCNCC3)c2)cnc1N)c1c(Cl)ccc(F)c1Cl [Crizotinib] (partner 1 µM)
How it was run: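 Nuclei were stained with Hoechst during a one-step fixation (final 0.05% Triton X-100, 1% formaldehyde, 1 ug/ml Hoechst) carried out 5 days after dosing, then counted on 4× images. The cells, lung cancer lines in 1536-well plates, had been dosed by pin tool the day after seeding with one drug alone or a fixed anchor-drug dose plus five library-drug doses (not always all listed) in √10 steps. Relative viability is the nuclei count in treated wells divided by that in vehicle wells, and each value is the median of duplicate plates.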

Ricolinostat = compound: O=C(CCCCCCNC(=O)c1cnc(N(c2ccccc2)c2ccccc2)nc1)NO [Ricolinostat]
How it was run: (§1)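 MetaXpress counted nuclei in 4× images of lung cancer cell lines that had been fixed, permeabilised and Hoechst-stained in one step. Before that, cells in 1536-well plates were kept overnight at 37 °C, pinned with five √10-spaced library-drug doses on vehicle-anchored plates, and cultured 5 days without medium change. Viability takes treated-well nuclei over vehicle-well nuclei and uses the median across plates. Plates were accepted only at control CV below 25% and at least one doubling.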

[1] = compound: C1=CC=C(C(=C1)C2=CC=C(C=C2)C3=CSC4=C3C(=C(C(=O)N4)C#N)O)O
How it was run: as §1

TGX 221 = compound: CC1=CN2C(=O)C=C(N=C2C(=C1)C(C)NC3=CC=CC=C3)N4CCOCC4 [TGX 221]
How it was run: as §1

Cell Line	relative viability (TGX 221 + Crizotinib; first compound 0.08 µM)	relative viability (TGX 221 + Crizotinib; first compound 0.253 µM)	relative viability (TGX 221 + Crizotinib; first compound 0.8 µM)	relative viability (TGX 221 + Crizotinib; first compound 2.53 µM)	relative viability (TGX 221 + Crizotinib; first compound 8 µM)	relative viability (Ricolinostat; 0.08 µM)	relative viability (Ricolinostat; 0.253 µM)	relative viability (Ricolinostat; 0.8 µM)	relative viability (Ricolinostat; 2.53 µM)	relative viability ([1]; 0.08 µM)	relative viability ([1]; 0.253 µM)	relative viability ([1]; 0.8 µM)	relative viability ([1]; 2.53 µM)	relative viability ([1]; 8 µM)	relative viability (TGX 221; 0.08 µM)	relative viability (TGX 221; 0.253 µM)	relative viability (TGX 221; 0.8 µM)	relative viability (TGX 221; 2.53 µM)	relative viability (TGX 221; 8 µM)
ABC-1	0.946	0.809	1.25	1.01	1.26	1	0.996	0.846	0.88	0.854	0.866	1.01	0.874	0.881	0.827	0.924	0.979	1.02	0.922
EMC-BAC-2	0.745	0.706	0.746	0.743	0.569	0.887	0.93	0.83	0.484	0.957	0.897	0.876	0.927	0.893	0.958	0.926	0.908	0.977	0.913
NCI-H2405	0.792	0.834	0.769	0.757	0.671	0.878	1	1.01	0.802	0.977	0.995	0.927	0.958	0.955	0.949	0.991	0.968	0.954	0.889
NCI-H1993	0.778	0.815	0.951	0.807	0.774	0.726	1	0.999	1.04	0.892	1.17	0.897	0.87	0.83	0.878	0.762	0.886	0.681	0.877
LU99A	0.493	0.577	0.516	0.517	0.563	0.877	0.926	0.865	0.641	0.984	0.905	0.95	0.89	0.911	0.859	0.857	0.896	0.89	0.981
ChaGo-K-1	1.1	1.01	1.18	1.11	0.989	0.936	1	0.921	0.832	0.785	1.08	1.01	1.01	0.809	0.904	0.938	0.987	0.958	1.04
NCI-H1355	1.02	1.07	1.01	0.913	0.887	0.855	0.97	0.948	0.893	0.839	1.13	1.02	1.02	0.955	0.979	0.948	0.972	0.864	0.902
NCI-H838	0.833	0.77	0.783	0.699	0.51	0.822	1.05	0.981	0.95	0.893	1.06	0.98	0.882	0.824	0.946	0.833	0.886	0.83	0.761
SK-MES-1	1.05	0.982	0.998	0.841	0.582	0.824	0.979	0.983	0.979	1.01	1.06	1.01	1.04	0.819	1.01	0.958	0.941	0.75	0.67
NCI-H460	0.754	0.811	1.05	0.896	0.64	0.95	0.968	0.96	0.989	0.963	1.05	1.02	1.06	0.742	0.968	0.96	0.977	0.945	0.925
Calu-6	0.718	0.698	0.806	0.768	0.693	0.957	0.994	0.981	0.895	1.01	1.11	1.02	1.08	0.899	1.03	0.929	1.02	0.923	0.957
HCC-78	0.385	0.334	–	0.294	0.274	–	1.03	0.8	0.637	0.85	1.23	1.15	0.966	0.832	0.769	0.856	0.785	0.722	0.76
NCI-H358	0.556	0.535	0.661	0.633	0.395	0.726	0.914	1.05	1.04	0.905	0.937	1.04	0.907	0.716	0.914	0.88	0.914	1.02	0.756
NCI-H1703	0.797	0.618	0.715	0.31	0.54	–	1.01	0.928	1	0.929	0.965	0.902	0.892	0.789	0.892	0.785	0.776	0.672	0.634
H3255	0.745	0.812	0.881	0.848	0.575	0.809	0.911	0.838	0.783	0.995	1.09	0.882	1.01	0.858	0.946	0.917	0.93	0.872	1.01
NCI-H2023	0.594	0.532	0.689	0.591	0.463	0.752	1.01	0.931	0.821	0.996	1.04	1.02	1.01	0.722	0.901	0.89	0.927	0.889	0.845
NCI-H1944	1.07	1.03	1.02	1.09	0.863	0.835	1.03	0.876	0.692	0.902	1.05	0.94	0.965	0.844	0.82	0.915	0.911	0.883	0.851

Cell Line	relative viability (TGX 221 + Crizotinib; first compound 0.08 µM)	relative viability (TGX 221 + Crizotinib; first compound 0.253 µM)	relative viability (TGX 221 + Crizotinib; first compound 0.8 µM)	relative viability (TGX 221 + Crizotinib; first compound 2.53 µM)	relative viability (TGX 221 + Crizotinib; first compound 8 µM)	relative viability (Ricolinostat; 0.08 µM)	relative viability (Ricolinostat; 0.253 µM)	relative viability (Ricolinostat; 0.8 µM)	relative viability (Ricolinostat; 2.53 µM)	relative viability ([1]; 0.08 µM)	relative viability ([1]; 0.253 µM)	relative viability ([1]; 0.8 µM)	relative viability ([1]; 2.53 µM)	relative viability ([1]; 8 µM)	relative viability (TGX 221; 0.08 µM)	relative viability (TGX 221; 0.253 µM)	relative viability (TGX 221; 0.8 µM)	relative viability (TGX 221; 2.53 µM)	relative viability (TGX 221; 8 µM)
LOU-NH91	0.796	0.75	0.746	0.735	0.655	–	1.03	0.94	0.98	0.941	1.06	0.962	0.896	0.894	0.914	1	0.948	0.948	0.901
NCI-H2347	0.67	0.666	0.635	0.701	0.542	0.911	0.964	0.994	0.92	0.996	1.15	0.989	1.07	0.916	0.898	0.987	0.986	0.88	0.851
CAL-12T	0.53	0.673	0.72	0.689	0.595	0.835	0.953	0.953	1.01	0.894	1.24	0.946	0.929	0.747	0.963	0.936	0.992	0.917	1.05
RERF-LC-KJ	0.736	0.832	0.752	0.781	0.795	0.955	1.02	0.984	0.814	1.07	1.07	0.987	1.01	0.8	0.895	0.933	0.964	0.917	0.938
HCC-44	0.83	0.794	0.875	0.758	0.733	1.01	0.966	0.962	0.77	1.03	1	0.997	0.956	0.991	0.991	1.03	1.03	0.99	1.03
NCI-H650	0.729	0.655	0.624	0.689	0.534	0.769	0.969	0.874	0.696	0.85	1.04	0.835	1.01	0.877	0.873	0.964	0.853	0.867	0.889
COR-L 105	0.883	0.748	0.967	0.728	0.519	0.775	0.92	0.837	1.09	0.851	0.96	0.96	0.708	0.903	1.01	0.875	0.859	0.944	0.823
COR-L23	0.597	0.523	0.727	0.597	0.619	0.942	0.895	0.844	0.707	1.13	1.07	1.1	1.13	0.704	1.01	1	0.97	1.02	0.989
LXF-289	0.813	0.832	0.808	0.774	0.82	0.994	0.972	1	0.968	0.936	1.02	1	1.06	0.969	1.03	0.98	1.03	0.984	1.04
PC-14	0.934	0.845	0.865	0.85	0.885	0.932	0.927	0.902	0.798	0.844	1.24	0.952	1.09	0.806	0.913	0.953	0.983	1.02	0.907
EKVX	0.85	0.832	0.843	0.927	0.773	0.764	0.918	0.907	0.964	0.961	1.13	0.971	0.967	0.851	0.865	0.888	0.907	0.838	0.855
NCI-H322M	0.945	1.03	0.95	0.823	0.911	–	0.964	0.958	0.923	0.866	0.918	0.95	0.949	0.96	0.876	0.875	0.904	0.801	0.841
NCI-H520	0.532	0.724	0.68	0.572	0.398	–	1.05	1.01	0.861	0.808	0.901	1.07	1.04	0.777	0.809	0.797	0.741	0.692	0.656
LC-2-ad	0.438	0.423	0.475	0.499	0.486	0.866	0.964	0.946	0.683	0.824	1.05	0.898	1.04	0.906	0.962	1.01	1.01	1.02	0.92
NCI-H596	0.993	1.04	1	0.823	0.82	0.999	1.1	0.987	0.851	0.777	1.22	1.05	0.98	0.841	1.03	0.953	1.02	0.94	0.997
A549	0.677	0.743	0.773	0.751	0.529	0.792	0.945	0.926	0.971	0.908	1.19	1.02	0.977	0.675	0.954	0.884	0.953	0.927	0.867
LCLC-97TM1	0.394	0.299	0.41	0.263	0.252	0.809	1.06	0.997	0.855	0.895	1.34	1.02	1.08	1.03	0.97	0.76	1.02	0.863	0.924
